Target: T1, NfoR (NAD(P)H-flavin oxidoreductase) (Staphylococcus aureus, UniProt Q2FVA4)
T1 construct: gene SAOUHSC_02829; N-terminal 6xHis tag, pET-28a (pEnfoR), E. coli Rosetta (DE3), HisTrap; dimer by homology model only; residues named: His100, His128, Cys163, Met165
T1 sequence (Q2FVA4 1-223): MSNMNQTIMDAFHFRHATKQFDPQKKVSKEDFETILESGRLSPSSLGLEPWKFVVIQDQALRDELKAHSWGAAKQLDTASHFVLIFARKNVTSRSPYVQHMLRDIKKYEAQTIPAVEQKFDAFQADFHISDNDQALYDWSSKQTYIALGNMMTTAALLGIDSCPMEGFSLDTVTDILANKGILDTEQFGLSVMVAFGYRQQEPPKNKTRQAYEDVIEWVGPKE
Test: HPLC of flavin released by heating the purified protein
Format: binding
Details: FMN co-purified with the protein; non-covalent; occupancy, not an affinity

Cc1cc2nc3c(=O)[nH]c(=O)nc-3n(C[C@H](O)[C@H](O)[C@H](O)COP(=O)(O)O)c2cc1C [FMN]
percent of FMN/isolated NfoR: 79.98%
